Measured values published in ChEMBL document CHEMBL1201862, “PubChem BioAssay data set” (2004).
Calls of active or inactive are those of the source.

Assays:
[1] = target: T1, Endoribonuclease toxin MazF (Escherichia coli K-12, UniProt P0AE70); assay: MazF toxin RNase activators, dose response, biochemical, fluorescence, single-stranded RNA substrate, uHTS hits (AID 588481); format: functional
T1 sequence (P0AE70 whole entry): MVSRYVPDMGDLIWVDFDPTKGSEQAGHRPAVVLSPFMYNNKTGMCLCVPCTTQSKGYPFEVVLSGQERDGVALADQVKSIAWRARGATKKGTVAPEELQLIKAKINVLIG

[2] = target: UDP-galactopyranose mutase (Mycobacterium tuberculosis, UniProt P9WIQ1); assay: Inhibitors of Mycobacterium tuberculosis UDP-galactopyranose mutase (UGM) enzyme Measured in Biochemical System Using Plate Reader - 2105-02_Inhibitor_Dose_CherryPick_Activity. [Related pubchem assays (depositor defined):AID504439]
Chain of UDP-galactopyranose mutase (P9WIQ1 whole entry): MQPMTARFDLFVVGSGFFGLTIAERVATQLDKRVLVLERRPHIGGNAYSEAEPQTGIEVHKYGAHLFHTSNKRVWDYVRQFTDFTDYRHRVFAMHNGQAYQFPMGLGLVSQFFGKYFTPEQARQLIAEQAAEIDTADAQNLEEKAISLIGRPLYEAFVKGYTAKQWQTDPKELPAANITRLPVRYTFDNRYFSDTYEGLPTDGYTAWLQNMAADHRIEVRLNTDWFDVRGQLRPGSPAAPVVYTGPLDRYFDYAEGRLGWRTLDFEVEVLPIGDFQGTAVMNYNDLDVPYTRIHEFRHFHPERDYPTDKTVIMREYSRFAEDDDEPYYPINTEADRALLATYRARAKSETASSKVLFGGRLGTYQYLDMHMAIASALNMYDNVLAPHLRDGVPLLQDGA

[3] = target: T1, Endoribonuclease toxin MazF; assay: fluorescent RNA oligo signal without MazF, dose response, counter-screen for MazEF activator project, biochemical, fluorescence, single-stranded RNase substrate (AID 588502); format: functional
[4] = tested on: Jurkat; assay: SAR Analysis of small molecule inhibitors of […] specific antigen receptor-induced NF-kB activation in a Jurkat cell line using a luminescence assay - Set 3. [Related pubchem assays (depositor defined):AID435022, AID435025, AID465]; format: functional, cell-based; details: Homo sapiens
[5] = tested on: HEK293; assay: SAR Analysis of small molecule inhibitors of B-cell specific antigen receptor-induced NF-kB activation in a HEK-293T cell line using a luminescence assay - Set 2. [Related pubchem assays (depositor defined):AID435022, AID435025, AID489021]; format: functional, cell-based; details: Homo sapiens
[6] = tested on: HEK293; assay: cytotoxicity in HEK293T NF-kB-Luc cells, SAR follow-up, cytotoxicity control for NF-kB activator project, cell-based, resazurin fluorescence (AID 493251); format: functional; details: Homo sapiens
[7] = NIH-3T3 fibroblast cytotoxicity, dose response, cytotoxicity control, cell-based, fluorescence, Alamar Blue, secondary assay (AID 2327); format: functional;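 further: NIH-3T3 mouse fibroblasts cultured with fluconazole at 8 µg/mL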
[8] = target: E3 ubiquitin-protein ligase Mdm2 (Homo sapiens, UniProt Q00987); assay: enhancers of MDM2-luciferase reporter signal, concentration-effect titration, project on inhibitors of MDM2 ubiquitin ligase, cellular assay, luminescent readout, 384-well plate format (AID 1394); format: functional;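 further: MDM2 E3 inhibitors raise luminescence so EC50 is for signal enhancement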
Chain of E3 ubiquitin-protein ligase Mdm2 (Q00987 whole entry): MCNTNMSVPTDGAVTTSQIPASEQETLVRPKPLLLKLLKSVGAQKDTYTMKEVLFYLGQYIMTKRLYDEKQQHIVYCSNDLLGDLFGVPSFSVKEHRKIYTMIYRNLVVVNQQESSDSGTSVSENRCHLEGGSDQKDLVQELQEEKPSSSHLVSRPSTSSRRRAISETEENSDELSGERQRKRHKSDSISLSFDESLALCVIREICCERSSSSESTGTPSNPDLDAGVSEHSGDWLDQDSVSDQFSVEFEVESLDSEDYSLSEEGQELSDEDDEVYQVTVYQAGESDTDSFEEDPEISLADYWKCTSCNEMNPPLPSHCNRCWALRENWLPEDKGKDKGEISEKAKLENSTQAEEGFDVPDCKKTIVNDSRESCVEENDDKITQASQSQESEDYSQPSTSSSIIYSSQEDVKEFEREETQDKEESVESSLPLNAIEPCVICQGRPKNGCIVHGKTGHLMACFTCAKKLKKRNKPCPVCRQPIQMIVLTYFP

[9] = C. albicans growth with fluconazole, confirmation, fluorescence, retest (AID 2467); format: functional, cell-based
[10] = target: T2, Serine/threonine-protein phosphatase (Candida dubliniensis (strain CD36 / CBS 7987 / NCPF 3949 / NRRLY-17841) (Yeast), UniProt B9W6M3); assay: calcineurin pathway inhibitors in yeast reporter, dose response, S. cerevisiae, CDRE-lacZ, luminescence, secondary (AID 2388); format: functional, cell-based;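 further: yeast reporter cells carrying a calcineurin-responsive lacZ construct stimulated with calcium chloride; luminescent beta-galactosidase reporter signal in whole cells rather than isolated phosphatase activity; potency for inhibition where a drop in reporter signal means calcineurin blockade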
T2 sequence (B9W6M3 whole entry): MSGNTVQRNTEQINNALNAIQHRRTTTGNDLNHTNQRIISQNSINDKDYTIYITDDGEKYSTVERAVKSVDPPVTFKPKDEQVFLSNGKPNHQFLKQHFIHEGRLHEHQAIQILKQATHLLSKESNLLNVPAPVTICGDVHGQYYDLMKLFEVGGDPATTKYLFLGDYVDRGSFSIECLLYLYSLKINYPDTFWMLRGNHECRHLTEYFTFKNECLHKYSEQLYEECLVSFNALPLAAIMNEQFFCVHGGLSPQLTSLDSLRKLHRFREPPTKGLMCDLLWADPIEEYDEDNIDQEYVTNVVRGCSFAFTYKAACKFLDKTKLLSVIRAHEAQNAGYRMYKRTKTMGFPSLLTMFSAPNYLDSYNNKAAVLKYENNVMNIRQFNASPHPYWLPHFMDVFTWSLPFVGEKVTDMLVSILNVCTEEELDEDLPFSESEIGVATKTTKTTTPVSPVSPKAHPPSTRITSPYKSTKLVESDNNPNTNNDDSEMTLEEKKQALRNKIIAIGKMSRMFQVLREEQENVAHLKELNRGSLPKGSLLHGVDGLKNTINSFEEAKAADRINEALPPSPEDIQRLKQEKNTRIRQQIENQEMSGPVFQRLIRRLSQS

[11] = target: T3, Estrogen receptor (Homo sapiens, UniProt P03372); assay: potentiators of ERα–SRC-1 coactivator binding, dose response, biochemical, TR-FRET, ERα LBD (AID 737)
T3 sequence (P03372 whole entry): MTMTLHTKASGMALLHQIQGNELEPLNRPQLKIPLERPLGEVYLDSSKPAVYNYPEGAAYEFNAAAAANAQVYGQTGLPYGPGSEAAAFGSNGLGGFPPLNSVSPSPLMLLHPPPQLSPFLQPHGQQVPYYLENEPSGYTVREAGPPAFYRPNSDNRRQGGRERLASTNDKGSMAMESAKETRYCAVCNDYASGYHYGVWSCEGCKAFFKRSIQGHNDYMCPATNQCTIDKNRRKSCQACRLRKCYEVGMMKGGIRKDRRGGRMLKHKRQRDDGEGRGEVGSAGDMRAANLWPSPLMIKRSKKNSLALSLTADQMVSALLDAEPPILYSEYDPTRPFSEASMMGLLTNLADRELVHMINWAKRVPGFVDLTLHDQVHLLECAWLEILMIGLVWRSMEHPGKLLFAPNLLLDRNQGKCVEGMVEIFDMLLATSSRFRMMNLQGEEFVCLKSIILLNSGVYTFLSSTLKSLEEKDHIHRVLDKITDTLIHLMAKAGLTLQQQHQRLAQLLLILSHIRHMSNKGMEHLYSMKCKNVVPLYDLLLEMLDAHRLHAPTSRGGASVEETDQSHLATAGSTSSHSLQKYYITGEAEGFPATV

[12] = tested on: HEK293; assay: inhibitors of LMP1-driven NF-kB reporter, dose response, cell-based, HEK293, luciferase, cherry-pick (AID 588343); format: functional; details: Homo sapiens
[13] = target: Heat shock protein HSP 90-alpha (Homo sapiens, UniProt P07900); format: functional, organism-based
[14] = target: T2, Serine/threonine-protein phosphatase; assay: Fluorescence Cell-Based Secondary Assay to Identify Inhibitors of Calcineurin. [Related pubchem assays (depositor defined):AID1979, AID2007]; format: functional
[15] = tested on: INS1; assay: beta cell apoptosis inhibitors, cytokine rescue, dose response, luminescence, retest (AID 449756); format: functional, cell-based; details: Rattus norvegicus;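 further: cell death triggered by IL-1 beta plus TNF-alpha plus IFN-gamma mixture; protective hits raise ATP signal compared with cytokine alone wells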
[16] = target: ATP-dependent molecular chaperone HSP82 (Candida albicans (strain WO-1) (Yeast), UniProt C4YTQ8); assay: loss of DOC-induced GRE-beta-galactosidase reporter signal, dose response, Hsp90 inhibitor project, S. cerevisiae, luminescence (AID 2400); format: functional, cell-based;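 further: beta-galactosidase luminescence from glucocorticoid response element reporter as proxy for Hsp90 function; inhibitor potency where signal loss means Hsp90 inhibition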
Chain of ATP-dependent molecular chaperone HSP82 (C4YTQ8 whole entry): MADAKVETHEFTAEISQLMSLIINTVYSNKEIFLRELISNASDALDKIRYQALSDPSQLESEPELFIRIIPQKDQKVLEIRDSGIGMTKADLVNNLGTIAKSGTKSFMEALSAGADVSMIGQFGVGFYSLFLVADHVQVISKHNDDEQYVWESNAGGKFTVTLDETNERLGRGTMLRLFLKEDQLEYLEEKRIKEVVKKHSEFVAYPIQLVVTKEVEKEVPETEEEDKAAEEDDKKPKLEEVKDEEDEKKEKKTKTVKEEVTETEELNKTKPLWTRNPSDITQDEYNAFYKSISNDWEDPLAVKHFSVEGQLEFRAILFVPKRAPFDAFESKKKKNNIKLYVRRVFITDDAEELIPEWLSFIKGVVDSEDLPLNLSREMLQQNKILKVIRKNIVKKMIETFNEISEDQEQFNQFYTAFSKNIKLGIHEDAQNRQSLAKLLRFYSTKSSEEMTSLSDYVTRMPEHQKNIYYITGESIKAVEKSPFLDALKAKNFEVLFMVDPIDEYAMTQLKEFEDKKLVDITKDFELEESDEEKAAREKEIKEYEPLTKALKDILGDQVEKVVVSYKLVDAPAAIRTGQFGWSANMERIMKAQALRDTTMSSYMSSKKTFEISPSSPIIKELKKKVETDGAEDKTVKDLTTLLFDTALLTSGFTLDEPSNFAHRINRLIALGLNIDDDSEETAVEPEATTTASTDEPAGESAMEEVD

[17] = Shn3 3'UTR reporter inhibitors, dose response, cell-based, Clone20 osteoblasts, firefly luciferase, cherry-picked (AID 624132); format: functional;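 further: firefly luciferase luminescence from reporter carrying the Shn3 3'UTR in osteoblasts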
[18] = NIH-3T3 fibroblast cytotoxicity, dose response, cytotoxicity control for antifungal single agent project, cell-based, Alamar Blue, dry powder (AID 602188); format: functional
[19] = HepG2 cell cytotoxicity, dose response, cytotoxicity control for Shn3 inhibitor project, CellTiter-Glo, cherry-picked (AID 624134); format: functional, cell-based
[20] = control 3'UTR Renilla luciferase suppression, dose response, counter-screen for Shn3 inhibitor project, cell-based, Clone20-Shn3RL, cherry-picked (AID 624133); format: functional

Cc1cccc(N2C(=O)NC(=O)/C(=C/c3cc4c(cc3[N+](=O)[O-])OCO4)C2=O)c1
EC50 [1]: > 99 µM (inactive)
AC50 [2]: 45 µM (active)
EC50 [3]: > 99 µM (inactive)

CCOc1ccccc1NC(=O)CCc1nc(-c2ccc(C(C)(C)C)cc2)no1
IC50 [4]: 1.02 µM (active)
IC50 [5]: 460 nM (active)
IC50 [6]: > 80 µM (inactive)

O=C(Nc1nc(-c2ccccn2)cs1)c1ccc(Br)s1
EC50 [7]: > 160 µM (inactive)
EC50 [8]: 22.7 µM (not active)
EC50 [9]: 1.81 µM (active)
EC50 [10]: > 180 µM (inactive)
EC50 [11]: 24.5 µM (not active)
AC50 [12]: 637 nM (active)
AC50 [13]: 1.83 µM (active)
EC50 [14]: 15.7 µM (active)
AC50 [15]: 1.03 µM (active)
EC50 [16]: 4.31 µM (active)
AC50 [17]: 1 µM (active)
AC50 [18]: 991 nM (active)
AC50 [19]: 3.78 µM (active)
AC50 [20]: 743 nM (active)
